Measurements published in patent publication US20070098685A1, “Methods and kits to treat chronic inflammatory immune diseases by administering a proteasome inhibitor and an interleukin 2 receptor agonist” (priority 2005, published 2007).
Like-named read-outs stand apart in the source and are kept apart here.

Assays:
[1] = cited from earlier work
[2] = molecular target: T1, high affinity IL2 receptor (Homo sapiens, UniProt P01589+P14784+P31785); conditions: high affinity IL2 receptor on activated T cells; cited from earlier work
T1 sequence (P01589 22-272): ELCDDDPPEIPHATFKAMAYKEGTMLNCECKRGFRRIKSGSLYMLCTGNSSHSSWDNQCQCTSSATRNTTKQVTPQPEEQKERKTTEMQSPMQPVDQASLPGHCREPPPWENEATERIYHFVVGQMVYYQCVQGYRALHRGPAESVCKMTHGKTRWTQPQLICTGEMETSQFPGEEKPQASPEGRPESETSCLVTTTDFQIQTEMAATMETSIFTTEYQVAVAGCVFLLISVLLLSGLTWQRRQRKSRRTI
T1 sequence (P14784 27-551): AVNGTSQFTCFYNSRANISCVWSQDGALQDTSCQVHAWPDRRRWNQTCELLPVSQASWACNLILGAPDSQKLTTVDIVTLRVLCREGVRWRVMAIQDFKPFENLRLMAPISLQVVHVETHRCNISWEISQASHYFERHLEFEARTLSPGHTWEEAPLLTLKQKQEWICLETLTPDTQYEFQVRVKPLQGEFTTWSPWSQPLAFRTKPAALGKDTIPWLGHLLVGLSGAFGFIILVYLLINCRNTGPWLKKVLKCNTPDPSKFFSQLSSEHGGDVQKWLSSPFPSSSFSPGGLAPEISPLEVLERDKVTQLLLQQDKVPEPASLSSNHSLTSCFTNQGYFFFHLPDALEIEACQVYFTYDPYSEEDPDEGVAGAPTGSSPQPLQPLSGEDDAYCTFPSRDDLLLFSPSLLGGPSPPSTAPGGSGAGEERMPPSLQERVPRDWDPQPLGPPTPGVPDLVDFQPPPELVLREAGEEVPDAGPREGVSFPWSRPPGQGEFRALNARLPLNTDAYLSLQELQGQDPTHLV
T1 sequence (P31785 23-369): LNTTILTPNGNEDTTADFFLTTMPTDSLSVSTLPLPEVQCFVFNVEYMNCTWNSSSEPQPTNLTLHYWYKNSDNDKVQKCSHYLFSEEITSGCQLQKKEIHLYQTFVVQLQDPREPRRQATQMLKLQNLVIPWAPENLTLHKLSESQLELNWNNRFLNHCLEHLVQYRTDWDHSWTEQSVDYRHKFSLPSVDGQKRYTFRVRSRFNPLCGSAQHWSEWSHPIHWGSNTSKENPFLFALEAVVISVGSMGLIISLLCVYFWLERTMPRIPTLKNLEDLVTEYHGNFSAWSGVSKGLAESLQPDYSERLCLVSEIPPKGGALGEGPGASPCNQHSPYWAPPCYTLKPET

[3] = in vivo; cited from earlier work
[4] = system: CD4Th1 T cell mediated inflammation; assay: Delayed type hypersensitivity (DTH) reaction in mice, ear swelling after topical DNFB; format: in vivo; conditions: PS 341 0.003 to 0.01 or 0.03 mg/kg co-administered with IL2 (4 ng), FIG. 2
Excerpt: FIG. 1 is a drawing of a protocol for induction and assay of delayed-type hypersensitivity (DTH) in mice, as a function of time from left to right. Groups of experimental animals are sensitized on two successive days (at time points indicated as days—5 and —4 in the Figure) by application of 2,4-dinitro-1-fluorobenzene (DNFB; obtained from Sigma, St. Louis, Mo) to footpads, the DNFB dissolved in acetone or acetone/olive oil. After an additional day (at time indicated as day—3) proteasome inhibitor PS 341 and interleukin 2 (IL 2) are administered by intraperitoneal injection (IP). Animals are challenged, elicited for a T cell response, with DNFB topically applied to a target tissue such as ears at a point in time […] after administration, the point in time indicated as day 0. Swelling of the target, i.e., ear marker organ or tissue is measured at subsequent time points, exemplified as day 1 in the Figure.
Groups of experimental and control mice are administered an IL2 dose which is a constant amount (4 ng) in each group with the exception of a group of control animals not administered IL2, and are administered an amount of PS 341 that is varied (from 0.003 to 0.01 or 0.03 mg/kg total weight) in each of the various experimental groups. A control group of mice is administered IL 2 alone (no PS 341). […]
Inflammation was measured by ear swelling after applying topical DNFB. […]

[5] = humans, cited from earlier work
[6] = human subjects, 0.4 mg/m^2; cited from earlier work
blood cell proteasome [7] = conditions: cited from earlier work
blood cell proteasome [8] = conditions: rats, cited from earlier work
[9] = Animal models of immune disease; format: in vivo; conditions: 0.03 mg/kg dose
Protocol: Without being limited by any particular theory or mechanism, a preferred embodiment of the method is administering systemically a dose of a proteasome inhibitor that gives partial inhibition (20-30%) of red blood cell proteasome activity. In human subjects, a Velcade™ PS-341dose of 0.4 mg/m^2 gave 30% inhibition of blood cell proteasome activity after a single intravenous bolus injection; (Orlowski et al. 2002 J. Clin. Oncol. 20 pp. 4420-27).

[10] = cited from earlier work; remark: listed apart in the source
[11] = animal models and human subjects; cited from earlier work

des ala-1 serine 125 human interleukin 2 [IL2]
tolerability ([1]; intravenous administration for extended periods): well tolerated
tolerability ([1]; low doses (<20 million Units), repeated daily dosing for many weeks): well tolerated
Kd [2]: 0.01 nM
half-life [3]: 1.5 h

CC(C)C[C@H](NC(=O)[C@H](Cc1ccccc1)NC(=O)c1cnccn1)B(O)O [PS-341, Pyz Phe boro leu; Pyz2,5 pyraninecarboxylic acid]
inhibition of DTH (ear swelling) [4]: increasing inhibition of DTH
half-life [5]: approximately 24 hours
half-life ([5]; listed as Velcade): 24 h
therapeutic efficacy [6]: no significant therapeutic efficacy
inhibition of blood cell proteasome activity (blood cell proteasome [7]; human subjects, 0.4 mg/m^2, single intravenous bolus injection): 30%
maximal blood cell proteasome inhibition (blood cell proteasome [7]; humans, 1.38 mg/m^2 intravenous bolus, one hour after dosing): 80%
partial proteasome inhibition (blood cell proteasome [8]; 0.03 mg/kg intravenous bolus dose): 20-30%
maximal blood cell proteasome inhibition (blood cell proteasome [8]; 0.3 mg/kg intravenous bolus, one hour after dosing): 80%
therapeutic effect [9]: not effective therapeutically
tolerability [9]: well tolerated
adverse events ([10]; human studies, doses that are 1 mg/m^2): adverse events are observed
serious adverse events ([10]; human subjects, dose that causes partial inhibition of blood proteasome activity): does not cause serious adverse events
adverse events ([10]; human subjects, doses less than or equal to 0.4 mg/m^2, multiple administration): No adverse events were observed
toxicity [11]: free from substantial toxicity
